This note sets out measurements from patent US12054478B2, “Compositions and methods for inhibiting phenyl triazole MLL1-WDR5 protein-protein interaction” (China Pharmaceutical University, priority 2018, dated 2024).

A value given as a limit tells only on which side of the number the result lay.

The target of data set [1] is MLL1-WDR5 protein-protein interactions (Homo sapiens, UniProt P61964). The experiment in a line: Inhibition of MLL1-WDR5 protein-protein interaction. It counts as binding. The settings on record: Table 1; read-out: MLL1-WDR5 PPI inhibition activity.
Data set [2] deals with K562 human chronic myeloid leukemia cells. Description: Anti-proliferation on leukemia cells, K562. The format is cell-based. As to the method:
Anti-proliferation experiments were conducted with leukemia cells with some of the compounds in the present disclosure. Table 3 listed the results of evaluation of the anti-proliferation activities for some of the compounds from this present disclosure conducted with acute leukemia cells, wherein MV4-11 is human acute leukemia monocyte, Molm-13 is human acute myeloid leukemia cells, and K562 is human chronic myeloid leukemia cells.

Data set [3] concerns Molm-13 human acute myeloid leukemia cells. Description: Anti-proliferation on leukemia cells, Molm-13. It counts as cell-based. To be noted: Molm-13 cells. How it is done: (§1) Anti-proliferation experiments were conducted with leukemia cells with some of the compounds in the present disclosure.
The next data set concerns female balb/c mice. To be noted: 80 mg/kg intraperitoneal, 10 consecutive days. How it is done: In the meantime, subacute toxicity experiments were conducted to evaluate the safety of some of the compounds in the present disclosure in mouse.
Data set [4] has as its system MV4-11 human acute leukemia monocyte. Description: Anti-proliferation on leukemia cells, MV4-11. To be noted: MV-411 cells. The format is cell-based. As to the method:
as §1

For data set [5], the system named is H3K4 acetylation level (MLL1 catalytic activity in cells). The experiment in a line: Western-blot at cellular level, H3K4 acetylation (H3K4me1/2/3) levels. It counts as cell-based. To be noted: Yes/No. As to the method:
In addition, Western-blot experiments at cellular level were conducted with some of the compounds in the present disclosure, with results listed in Table 1 on whether some of the compounds in the present disclosure inhibited H3K4 acetylation levels.
The inhibition on MLL1 catalytic activities at the cellular level for some of the compounds was plotted in FIG. 2.

Data set [6] relates to Hox and Meis-1 gene expression. Description: RT-PCR at cellular level, Hox and Meis-1 gene expression. The format is cell-based. To be noted: Yes/No.

In general, GI50 refers to the concentration giving 50% growth inhibition.

As to `Cc1c(F)c(N)cc(C(=O)Nc2c(N3CCN(C)CC3)ccc(-n3cc(C(=O)NCCN4CCOCC4)nn3)c2C)c1Cl` [Example 22, 1-(3-(5-amino-2-chloro-4-fluoro-3-Methylbenzoylamino)-2-methyl-4-(4-methylpiperazin-1-group)phenyl)-N-(2-Morpholineethyl)-1H-1,2,3-triazol-4-formamide], in data set [1], the IC50 was under 10 nM. The GI50 in data set [2] amounted to 10.9 ± 0.7 µM; in data set [3] (Homo sapiens), 11.2 ± 0.8 µM; in data set [4] (Homo sapiens, MV4-11), 9.5 ± 0.4 µM. The “Average body weight changes” value in the data set on female balb/c mice is recorded as “slight body weight increase”.

In the case of “5-amino-2-chloro-N-(5-(4-(4-(dimethylaminomethyl)benzyl)-1H-1,2,3-triazol-1-group)-2-(4-methylpiperazin-1-group group)phenyl)-4-fluoro-3-Methyl benzoyl [Example 18]”, the “Inhibition on H3K4 acetylation level” value in data set [5] is “Yes”. Besides, the IC50 in data set [1] was under 50 nM. In data set [6], the “Downregulation of Hox and Meis-1 expression” value (“Downregulation” for short) was “Yes”. In addition, the 50% growth inhibitory concentration (GI50) came to 15.4 ± 2.2 µM in data set [3] and 11.2 ± 1.3 µM in data set [4].

On to `Cc1c(F)c(N)cc(C(=O)Nc2cc(-n3cc(C(=O)N4CCOCC4)nn3)ccc2N2CCN(C)CC2)c1Cl` [Example 4], for which, in data set [5], the “Inhibition on H3K4 acetylation level” value is on record as “Yes”. Further, in data set [6], the “Downregulation” value is listed as “Yes”. The molecule further came in with a 50% growth inhibitory concentration (GI50) in data set [2] of 34.4 ± 0.9 µM. Further, in the data set on female balb/c mice, the “Average body weight changes” value is recorded as “slight body weight increase”.

As for `Cc1c(F)c(N)cc(C(=O)Nc2cc(-n3cc(NC(=O)CCCN)nn3)ccc2N2CCN(C)CC2)c1Cl` [Example 16, 5-amino-N-(5-(4-(4-Aminobutyrylamino)-1H-1,2,3-triazol-1-group)-2-(4-methylpiperazin-1-group)phenyl)-2-chloro-4-fluoro-3-methyl benzoylamino], the IC50 in data set [1] is under 10 nM. Also, the GI50 in data set [2] was 15 ± 0.8 µM; in data set [4] (Homo sapiens, MV4-11), 15.1 ± 0.9 µM. Further, in the data set with female balb/c mice, the “Average body weight changes” value is listed as “slight body weight increase”.

Regarding `COC(=O)c1cn(-c2ccc(N3CCN(C)CC3)c(NC(=O)c3cc(N)c(F)c(C)c3Cl)c2)nn1` [Example 1, 1-(3-(5-amino-2-chloro-4-fluoro-3-methylbenzoylamino)-4-(4-methylpiperazine-1-group)phenyl)-1H-1,2,3-methyl triazole-4-carboxylate], the “Inhibition on H3K4 acetylation level” value in data set [5] is listed as “Yes”. Besides, in data set [6], the “Downregulation” value is “Yes”.

Regarding `Cc1c(F)c(N)cc(C(=O)Nc2cc(-c3ccc(N)cc3)ccc2N2CCN(C)CC2)c1Cl` [DDO-2084, reference compound], the “Inhibition on H3K4 acetylation level” value in data set [5] is reported as “Yes”. The IC50 in data set [1] is 88.7 ± 4.9 nM. The “Downregulation” value in data set [6] is reported as “Yes”. Also, the 50% growth inhibitory concentration (GI50) in data set [2] is 50.5 ± 5.5 µM; in data set [4] (Homo sapiens, MV4-11), 17.7 ± 2.3 µM.

Regarding `Cc1c(F)c(N)cc(C(=O)Nc2cc(-c3ccc(NC(=O)CCCN)cc3)ccc2N2CCN(C)CC2)c1Cl` [DDO-2117, reference compound], in the data set on female balb/c mice, the “Average body weight changes” value is recorded as “apparent body weight decrease”.

For `Cc1c(F)c(N)cc(C(=O)Nc2cc(-c3ccc(NC(=O)C(N)C(C)C)cc3)ccc2N2CCN(C)CC2)c1Cl` (stereo not shown) [DDO-2113, reference compound], in the data set with female balb/c mice, the Mouse survival entry is reported as “all mice died after dosing for 5 days”.

As for `Cc1c(F)c(N)cc(C(=O)Nc2cc(-n3cc(C(=O)NC4CCN(C)CC4)nn3)ccc2N2CCN(C)CC2)c1Cl` [Example 6, 1-(3-(5-Amino-2-chloro-4-fluoro-3-methylbenzoylamino)-4-(4-methylpiperazin-1-group)phenyl)-N-(1-methylpiperidin-4-group)-1H-1,2,3-triazole-4-carboxamide], in data set [2], halving of growth (GI50) required 10.4 ± 0.7 µM. Also, the “Average body weight changes” value with female balb/c mice is “slight body weight increase”.

As for `Cc1c(F)c(N)cc(C(=O)Nc2cc(-n3cc(C(=O)NCCCN4CCOCC4)nn3)ccc2N2CCN(C)CC2)c1Cl` [Example 7], the GI50 in data set [2] came out at 12.9 ± 0.4 µM. Besides, in the data set on female balb/c mice, the “Average body weight changes” value is recorded as “slight body weight increase”.
